We go through twelve compounds from ChEMBL document CHEMBL1681785, “Structure-activity relationships of flavonoids as inhibitors of breast cancer resistance protein (BCRP)” (Bioorg Med Chem, 2011).

The source made the active and inactive calls. The calls are words filed in the database; no cut-off is given here.

The subject of test [1] is MCF7. Kind of test: Cytotoxicity against human MCF7 cells assessed as intracellular ATP level at 10 uM after 72 hrs by luminometry. The class given is functional, cell-based.
Test [2] relates to MCF7. As to the kind of experiment: Cytotoxicity against human MCF7 cells assessed as intracellular ATP level after 72 hrs by luminometry. The format is functional, cell-based. Particulars: MCF7, 72 h.
For test [3], the target named is T1, Broad substrate specificity ATP-binding cassette transporter ABCG2 (Homo sapiens, UniProt Q9UNQ0).
T1 sequence (Q9UNQ0 whole entry): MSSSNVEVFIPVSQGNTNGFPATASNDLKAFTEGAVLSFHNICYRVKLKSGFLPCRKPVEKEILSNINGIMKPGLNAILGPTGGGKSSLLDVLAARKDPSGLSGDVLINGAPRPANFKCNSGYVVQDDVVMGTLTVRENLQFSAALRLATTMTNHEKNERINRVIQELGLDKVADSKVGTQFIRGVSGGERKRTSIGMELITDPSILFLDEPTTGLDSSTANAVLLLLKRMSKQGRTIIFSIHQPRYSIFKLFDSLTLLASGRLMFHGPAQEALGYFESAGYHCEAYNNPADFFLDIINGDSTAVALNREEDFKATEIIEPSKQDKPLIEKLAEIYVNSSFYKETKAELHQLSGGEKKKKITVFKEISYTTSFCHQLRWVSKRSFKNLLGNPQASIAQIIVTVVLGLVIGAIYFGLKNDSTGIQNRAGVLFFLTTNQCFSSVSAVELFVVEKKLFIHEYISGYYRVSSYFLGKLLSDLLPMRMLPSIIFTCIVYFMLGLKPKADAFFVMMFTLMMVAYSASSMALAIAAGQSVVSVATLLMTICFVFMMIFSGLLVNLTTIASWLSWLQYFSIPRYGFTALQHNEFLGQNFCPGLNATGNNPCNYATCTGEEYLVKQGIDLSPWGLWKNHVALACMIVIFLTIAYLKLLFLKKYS
As to the kind of experiment: Inhibition of BCRP expressed in MDCK cells using Hoechst 33342 staining. The class given is cell-based. Particulars: read-out: IC50.

Another test has as its system A2780 ADR. As to the kind of experiment: Inhibition of P-gp expressed in A2780adr cells at 10 uM by calcein AM accumulation assay relative to verapamil. The format is cell-based.
The nature of test [4]: Inhibition of P-gp expressed in A2780adr cells by calcein AM accumulation assay. The class given is cell-based. Particulars: A2780 ADR.
The subject of test [5] is A2780. Kind of test: Cytotoxicity against human A2780 cells assessed as intracellular ATP level after 72 hrs by luminometry. The class given is functional, cell-based. The following applies: A2780, 72 h.
Test [6] addresses ATP-dependent translocase ABCB1 (Homo sapiens, UniProt P08183). As to the kind of experiment: Inhibition of MDR1 expressed in MDCK cells using rhodamine 123 staining by flow cytometry. The class given is cell-based. (A flow cytometer gives signals particle by particle.)
Test [7] concerns A2780. Kind of test: Cytotoxicity against human A2780 cells assessed as intracellular ATP level at 10 uM after 72 hrs by luminometry. The format is functional, cell-based.
The target of test [8] is T1, Broad substrate specificity ATP-binding cassette transporter ABCG2. Kind of test: Inhibition of BCRP expressed in MCF-7 MX cells using Hoechst 33342 staining. The following applies: read-out: IC50. The class given is cell-based, MCF7.
Test [9] concerns the target Multidrug resistance-associated protein 1 (Homo sapiens, UniProt P33527). Kind of test: Inhibition of MRP1 expressed in human 2008 cells assessed as calcein AM accumulation by cell based assay.

Chain of Multidrug resistance-associated protein 1 (P33527 whole entry): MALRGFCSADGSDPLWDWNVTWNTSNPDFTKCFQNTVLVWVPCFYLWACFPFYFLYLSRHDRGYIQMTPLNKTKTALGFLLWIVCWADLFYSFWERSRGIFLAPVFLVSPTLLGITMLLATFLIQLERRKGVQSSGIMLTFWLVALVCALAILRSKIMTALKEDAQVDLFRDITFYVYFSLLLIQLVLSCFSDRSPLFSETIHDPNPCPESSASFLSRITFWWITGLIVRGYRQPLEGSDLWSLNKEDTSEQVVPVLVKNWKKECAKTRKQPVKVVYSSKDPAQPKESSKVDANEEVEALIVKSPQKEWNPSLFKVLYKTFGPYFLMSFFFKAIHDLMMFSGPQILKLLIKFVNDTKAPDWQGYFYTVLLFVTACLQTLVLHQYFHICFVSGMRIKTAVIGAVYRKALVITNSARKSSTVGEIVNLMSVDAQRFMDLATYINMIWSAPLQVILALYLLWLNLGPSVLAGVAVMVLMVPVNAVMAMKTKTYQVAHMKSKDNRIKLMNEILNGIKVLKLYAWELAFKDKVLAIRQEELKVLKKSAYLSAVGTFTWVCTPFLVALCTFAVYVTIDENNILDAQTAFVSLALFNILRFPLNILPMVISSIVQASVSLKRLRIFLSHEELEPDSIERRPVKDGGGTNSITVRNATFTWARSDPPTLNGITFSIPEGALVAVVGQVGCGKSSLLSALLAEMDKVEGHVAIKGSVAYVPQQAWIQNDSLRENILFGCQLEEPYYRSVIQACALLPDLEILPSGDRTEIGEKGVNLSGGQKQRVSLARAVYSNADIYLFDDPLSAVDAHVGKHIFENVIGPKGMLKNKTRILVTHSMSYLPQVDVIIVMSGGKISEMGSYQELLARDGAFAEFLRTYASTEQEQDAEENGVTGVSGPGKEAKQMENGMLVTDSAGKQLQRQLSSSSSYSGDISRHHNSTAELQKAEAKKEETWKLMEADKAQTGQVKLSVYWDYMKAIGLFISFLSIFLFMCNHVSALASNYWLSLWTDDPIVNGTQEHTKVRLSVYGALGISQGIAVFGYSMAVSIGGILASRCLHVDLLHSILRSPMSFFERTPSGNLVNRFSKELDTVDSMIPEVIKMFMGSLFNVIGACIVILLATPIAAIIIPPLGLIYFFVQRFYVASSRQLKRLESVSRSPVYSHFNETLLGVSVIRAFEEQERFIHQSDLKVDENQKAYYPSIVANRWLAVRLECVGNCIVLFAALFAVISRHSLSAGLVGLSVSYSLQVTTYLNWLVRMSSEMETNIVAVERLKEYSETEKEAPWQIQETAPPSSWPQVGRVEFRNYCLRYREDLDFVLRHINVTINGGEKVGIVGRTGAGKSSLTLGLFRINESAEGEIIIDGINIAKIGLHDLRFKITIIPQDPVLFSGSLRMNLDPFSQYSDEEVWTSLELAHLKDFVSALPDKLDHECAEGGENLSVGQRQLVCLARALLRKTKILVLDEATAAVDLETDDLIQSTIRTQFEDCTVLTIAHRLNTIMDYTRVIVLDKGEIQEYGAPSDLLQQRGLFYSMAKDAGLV
Chain of ATP-dependent translocase ABCB1 (P08183 whole entry): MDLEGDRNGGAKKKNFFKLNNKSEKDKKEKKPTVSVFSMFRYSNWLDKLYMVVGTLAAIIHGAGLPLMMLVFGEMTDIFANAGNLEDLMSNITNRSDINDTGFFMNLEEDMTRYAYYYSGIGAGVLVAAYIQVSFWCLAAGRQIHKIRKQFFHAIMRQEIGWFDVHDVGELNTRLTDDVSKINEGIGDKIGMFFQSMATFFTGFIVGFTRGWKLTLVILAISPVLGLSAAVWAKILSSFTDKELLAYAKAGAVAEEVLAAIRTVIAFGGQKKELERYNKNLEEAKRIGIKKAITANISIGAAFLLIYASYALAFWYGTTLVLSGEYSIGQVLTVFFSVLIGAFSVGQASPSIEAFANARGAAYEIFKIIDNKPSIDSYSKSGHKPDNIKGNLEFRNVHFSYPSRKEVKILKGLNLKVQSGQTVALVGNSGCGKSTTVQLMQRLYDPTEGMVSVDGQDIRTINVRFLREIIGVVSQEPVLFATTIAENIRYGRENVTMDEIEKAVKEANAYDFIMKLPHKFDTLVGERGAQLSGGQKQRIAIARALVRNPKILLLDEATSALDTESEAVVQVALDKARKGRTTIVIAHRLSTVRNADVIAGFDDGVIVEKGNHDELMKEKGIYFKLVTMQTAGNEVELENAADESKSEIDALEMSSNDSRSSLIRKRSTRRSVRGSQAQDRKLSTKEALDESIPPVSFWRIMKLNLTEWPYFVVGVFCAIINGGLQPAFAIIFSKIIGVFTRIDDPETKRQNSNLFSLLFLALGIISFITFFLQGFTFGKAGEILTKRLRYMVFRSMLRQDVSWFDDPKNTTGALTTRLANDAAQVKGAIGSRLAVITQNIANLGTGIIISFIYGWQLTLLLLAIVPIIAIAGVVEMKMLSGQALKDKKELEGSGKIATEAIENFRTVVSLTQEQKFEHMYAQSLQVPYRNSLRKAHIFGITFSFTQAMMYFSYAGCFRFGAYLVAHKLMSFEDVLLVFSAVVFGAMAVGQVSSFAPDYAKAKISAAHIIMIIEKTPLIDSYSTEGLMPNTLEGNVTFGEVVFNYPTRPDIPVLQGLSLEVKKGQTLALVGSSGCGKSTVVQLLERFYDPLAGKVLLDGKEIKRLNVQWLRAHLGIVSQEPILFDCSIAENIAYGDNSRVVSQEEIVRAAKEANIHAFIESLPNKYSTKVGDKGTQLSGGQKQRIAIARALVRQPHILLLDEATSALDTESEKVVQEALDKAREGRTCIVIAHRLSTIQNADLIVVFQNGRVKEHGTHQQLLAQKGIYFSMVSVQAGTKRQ

`COC1=C(OC)[C@]2(OC)c3c(OC)c(OC)c4c(c3O[C@@]23O[C@@H](c2ccccc2)CC=C3C1=O)[C@@H](O)C[C@H](c1ccccc1)O4` [NEOCALYCOPTERON]: the result with MCF7 [1] and in the test with A2780 [7] was Active. The IC50 was 2.4 µM in the test on MCF7 [2]; 11 µM in test [3]; 12 µM in test [4]; 2.4 µM in the test with A2780 [5] (read-out: IC50); 8 µM in test [6]; 15 µM in test [8]. Also, the inhibition entry with A2780 ADR was “inactive”.

As to `COc1cc2oc(-c3ccc(O)cc3)c(OC)c(=O)c2c(O)c1OC` [PENDULETIN], the outcome with MCF7 [1] and in the test on A2780 [7] was inactive. The IC50 in test [3] is 1.2 µM; in test [4], 15 µM; in [6] it was 14 µM; in [8], 2 µM. Further, in the test with A2780 ADR, the inhibition entry was “inactive”.

Regarding `COc1ccc2c(c1)c(CC(=O)O)c(C)n2C(=O)c1ccc(Cl)cc1` [INDOMETHACIN], the IC50 in [9] was 12.6 µM.

`COc1cc(O)c2c(=O)c(OC)c(-c3ccc(OC)c(OC)c3)oc2c1` [RETUSIN]: the outcome with MCF7 [1] and in the test on A2780 [7] was inactive. In addition, the IC50 in test [3] was 0.39 µM; in test [4] it was 12 µM; in test [6], 16 µM; in [8], 0.9 µM; in test [9], 50 µM. The inhibition entry with A2780 ADR is “inactive”.

Consider `COc1ccc2oc(-c3ccccc3)cc(=O)c2c1` [6-METHOXYFLAVONE], for which the outcome in the test with MCF7 [1] and in the test on A2780 [7] was inactive. Also, the IC50 in test [3] is 3.4 µM; in test [4], 13 µM; in test [6], 15 µM; in test [8], 10 µM. Further, in the test on A2780 ADR, the inhibition entry was “inactive”.

As for `COc1c2c(c3c(c1OC)[C@@]1(OC)C4=C(C(=O)[C@H](OC)[C@@]1(OC)O3)[C@H](OC)C[C@@H](c1ccccc1)O4)[C@H](O)C[C@@H](c1ccccc1)O2` [CALYFLORENON B], the result in the test with MCF7 [1] and in the test with A2780 [7] was Active. The IC50 in the test with MCF7 [2] was 15 µM; in test [3], 29 µM; in test [4] it was 5.6 µM; in the test on A2780 [5] (read-out: IC50), 11 µM; in [6], 8 µM; in [8] it was 40 µM. In addition, the inhibition result in the test with A2780 ADR is “inactive”.

As for `COC1=C(OC)[C@]2(OC)c3c(OC)c(OC)c4c(c3O[C@@]23O[C@@H](c2ccccc2)CC=C3C1=O)[C@@H](OC)C[C@H](c1ccccc1)O4`, the result in the test with MCF7 [1] and with A2780 [7] was Active. Also, the IC50 was 1.9 µM in the test on MCF7 [2]; 16 µM in test [3]; 1.7 µM in test [4]; 1.7 µM in the test on A2780 [5] (read-out: IC50); 2.14 µM in the test with A2780 [5] (read-out: pIC50 (converted)); 1.4 µM in test [6]. Further, in test [8], the IC50 amounted to 47 µM. In the test on A2780 ADR, the inhibition entry is “inactive”.

Take `COc1cc2oc(-c3ccccc3)cc(=O)c2c(OC)c1C` [Strobochrysin-dimethylether]: the result in the test on MCF7 [1] and in the test on A2780 [7] was inactive. In addition, the IC50 in test [3] is 5.9 µM; in [4], 8.9 µM; in test [6] it was 19 µM; in test [8], 8 µM. Besides, the inhibition entry in the test with A2780 ADR is “inactive”.

As to `COc1cc2c(c(O)c1C)C(=O)CC(c1ccccc1)O2` (configuration not stated), the result with MCF7 [1] and in the test with A2780 [7] was inactive. The IC50 was 4.9 µM in test [3], 23 µM in [4], 29 µM in test [6] and 12 µM in [8]. Besides, the inhibition entry in the test on A2780 ADR is “inactive”.

In the case of `COc1ccc(-c2cc(=O)c3c(OC)c(OC)c(OC)c(OC)c3o2)cc1` [TANGERETIN], the result with MCF7 [1] and in the test with A2780 [7] was inactive. For the same compound, the IC50 in test [3] was 19 µM; in test [4], 19 µM; in test [6], 39 µM; in [8] it was 17 µM. Besides, the inhibition entry in the test on A2780 ADR is “inactive”.

Take `COc1cccc2c1C(=O)c1c(O)c3c(c(O)c1C2=O)C[C@@](O)(C(=O)CO)C[C@@H]3O[C@H]1C[C@H](N)[C@H](O)[C@H](C)O1` [DOXORUBICIN]: the figures for the IC50 in the test on MCF7 [2] and in the test with A2780 [5] (read-out: IC50) were 0.1 µM and 0.044 µM, respectively.

Consider `COc1cc(O)c2c(=O)c(OC)c(-c3ccc(OC)c(O)c3)oc2c1` [AYANIN], for which the result with MCF7 [1] and in the test with A2780 [7] was inactive. The IC50 is 0.46 µM in test [3]; 9.4 µM in test [4]; 13 µM in [6]; 0.68 µM in test [8]; 50 µM in test [9]. In addition, in the test on A2780 ADR, the inhibition entry was “inactive”.
